Values of other authors as cited in US20200367542A1, “AROMA COMPOSITION” (SYMRISE AG, priority 2017, published 2020).

Experiments:
[1] = purity>90%, in soft drinks
[2] = J. Chem. Senses 1979, 4(1), 35-47

Row | Structure (SMILES) | Concentration to achieve a sweetness corresponding to a concentration of sucrose of 10% by weight [1] | Taste described in the publication [2]
1 | C=C1C[C@@]23CC[C@H]4[C@@](C)(CCC[C@@]4(C)C(=O)O[C@@H]4O[C@H](CO)[C@@H](O)[C@H](O)[C@H]4O)[C@@H]2CC[C@]1(O[C@@H]1O[C@H](CO)[C@@H](O)[C@H](O[C@@H]2O[C@H](CO)[C@@H](O)[C@H](O)[C@H]2O)[C@H]1O[C@@H]1O[C@H](CO)[C@@H](O)[C@H](O)[C@H]1O)C3 [rebaudioside A] | 400-600 ppm | 
2 | COc1ccc(CCC(=O)c2ccccc2O)cc1O [dihydrochalcone (2)] |  | intensively sweet tasting
3 | COc1ccc(CCC(=O)c2c(O)cccc2O)cc1O [dihydrochalcone (3)] |  | tasteless
